Experimental data as given in PubChem BioAssay (NCI).
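Growth conditions: 96-well plates. Treatment: test compound, 48 hours, 5 concentrations. Analysis: linear interpolation between bracketing concentrations; unreached endpoints set to highest concentration. TGI: concentration producing complete growth inhibition.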

Legend:
Assay in all cases: inhibition of tumour cell growth, NCI panel, 48 h
SNB-19 CNS = test system: SNB-19 CNS
IGROV1 ovarian = test system: IGROV1 ovarian
SF-539 CNS = test system: SF-539 CNS
ACHN renal = test system: ACHN renal
UACC-257 melanoma = test system: UACC-257 melanoma
SF-295 CNS = test system: SF-295 CNS
HOP-18 NSCLC = test system: HOP-18 NSCLC
TK-10 renal = test system: TK-10 renal
HT29 colon = test system: HT29 colon
A549 NSCLC = test system: A549 NSCLC
UO-31 renal = test system: UO-31 renal
CAKI-1 renal = test system: CAKI-1 renal
SNB-75 CNS = test system: SNB-75 CNS
786-0 renal = test system: 786-0 renal
RPMI-8226 leukemia = test system: RPMI-8226 leukemia
M14 melanoma = test system: M14 melanoma
HL-60(TB) leukemia = test system: HL-60(TB) leukemia
NCI-H23 lung = test system: NCI-H23 lung
SK-MEL-28 melanoma = test system: SK-MEL-28 melanoma
LXFL 529 NSCLC = test system: LXFL 529 NSCLC
KM20L2 colon = test system: KM20L2 colon
M19-MEL melanoma = test system: M19-MEL melanoma
SK-MEL-5 melanoma = test system: SK-MEL-5 melanoma
DMS 114 small cell lung = test system: DMS 114 small cell lung
KM12 colon = test system: KM12 colon
OVCAR-3 ovarian = test system: OVCAR-3 ovarian
CCRF-CEM leukemia = test system: CCRF-CEM leukemia
K-562 leukemia = test system: K-562 leukemia
COLO 205 colon = test system: COLO 205 colon
HCC-2998 colon = test system: HCC-2998 colon
HCT-15 colon = test system: HCT-15 colon
MALME-3M melanoma = test system: MALME-3M melanoma
OVCAR-4 ovarian = test system: OVCAR-4 ovarian
NCI-H460 lung = test system: NCI-H460 lung
SN12C renal = test system: SN12C renal
SF-268 CNS = test system: SF-268 CNS
SR leukemia = test system: SR leukemia
OVCAR-8 ovarian = test system: OVCAR-8 ovarian
SW-620 colon = test system: SW-620 colon
OVCAR-5 ovarian = test system: OVCAR-5 ovarian
SNB-78 CNS = test system: SNB-78 CNS
NCI-H226 lung = test system: NCI-H226 lung
A498 renal = test system: A498 renal
RXF-631 renal = test system: RXF-631 renal
U251 CNS = test system: U251 CNS
UACC-62 melanoma = test system: UACC-62 melanoma
LOX IMVI melanoma = test system: LOX IMVI melanoma
DMS 273 small cell lung = test system: DMS 273 small cell lung
DLD-1 colon = test system: DLD-1 colon
MOLT-4 leukemia = test system: MOLT-4 leukemia
HCT-116 colon = test system: HCT-116 colon
HOP-62 NSCLC = test system: HOP-62 NSCLC
SK-MEL-2 melanoma = test system: SK-MEL-2 melanoma
EKVX NSCLC = test system: EKVX NSCLC
NCI-H522 lung = test system: NCI-H522 lung
SK-OV-3 ovarian = test system: SK-OV-3 ovarian
HOP-92 NSCLC = test system: HOP-92 NSCLC
RXF 393 renal = test system: RXF 393 renal

COc1cc(C=O)c(-c2c(C=O)ccc3c2OCO3)c(OC)c1OC
TGI (SNB-19 CNS): > 100 µM | TGI (IGROV1 ovarian): > 100 µM | TGI (SF-539 CNS): > 100 µM | TGI (ACHN renal): > 100 µM | TGI (UACC-257 melanoma): > 100 µM | TGI (SF-295 CNS): > 100 µM | TGI (HOP-18 NSCLC): > 100 µM | TGI (TK-10 renal): > 100 µM | TGI (HT29 colon): > 100 µM | TGI (A549 NSCLC): > 100 µM | TGI (UO-31 renal): > 100 µM | TGI (CAKI-1 renal): > 100 µM | TGI (SNB-75 CNS): > 100 µM | TGI (786-0 renal): > 100 µM | TGI (RPMI-8226 leukemia): > 100 µM | TGI (M14 melanoma): > 100 µM | TGI (HL-60(TB) leukemia): 81.1 µM | TGI (NCI-H23 lung): > 100 µM | TGI (SK-MEL-28 melanoma): > 100 µM | TGI (LXFL 529 NSCLC): > 100 µM | TGI (KM20L2 colon): > 100 µM | TGI (M19-MEL melanoma): > 100 µM | TGI (SK-MEL-5 melanoma): > 100 µM | TGI (DMS 114 small cell lung): > 100 µM | TGI (KM12 colon): > 100 µM | TGI (OVCAR-3 ovarian): > 100 µM | TGI (CCRF-CEM leukemia): > 100 µM | TGI (K-562 leukemia): > 100 µM | TGI (COLO 205 colon): > 100 µM | TGI (HCC-2998 colon): > 100 µM | TGI (HCT-15 colon): > 100 µM | TGI (MALME-3M melanoma): > 100 µM | TGI (OVCAR-4 ovarian): > 100 µM | TGI (NCI-H460 lung): > 100 µM | TGI (SN12C renal): > 100 µM | TGI (SF-268 CNS): > 100 µM | TGI (SR leukemia): > 100 µM | TGI (OVCAR-8 ovarian): > 100 µM | TGI (SW-620 colon): > 100 µM | TGI (OVCAR-5 ovarian): > 100 µM | TGI (SNB-78 CNS): > 100 µM | TGI (NCI-H226 lung): > 100 µM | TGI (A498 renal): > 100 µM | TGI (RXF-631 renal): > 100 µM | TGI (U251 CNS): > 100 µM | TGI (UACC-62 melanoma): > 100 µM | TGI (LOX IMVI melanoma): > 100 µM | TGI (DMS 273 small cell lung): > 100 µM | TGI (DLD-1 colon): > 100 µM | TGI (MOLT-4 leukemia): > 100 µM | TGI (HCT-116 colon): > 100 µM | TGI (HOP-62 NSCLC): > 100 µM | TGI (SK-MEL-2 melanoma): > 100 µM | TGI (EKVX NSCLC): > 100 µM | TGI (NCI-H522 lung): > 100 µM | TGI (SK-OV-3 ovarian): > 100 µM

O=C(Nc1ccc(C(F)(F)F)cc1[N+](=O)[O-])C(=O)C1NC(=S)NC1=O (centres undefined)
TGI (SNB-19 CNS): > 100 µM | TGI (HOP-92 NSCLC): > 100 µM | TGI (IGROV1 ovarian): > 100 µM | TGI (SF-539 CNS): > 100 µM | TGI (ACHN renal): > 100 µM | TGI (UACC-257 melanoma): > 100 µM | TGI (SF-295 CNS): > 100 µM | TGI (HOP-18 NSCLC): > 100 µM | TGI (TK-10 renal): > 100 µM | TGI (HT29 colon): > 100 µM | TGI (A549 NSCLC): > 100 µM | TGI (UO-31 renal): > 100 µM | TGI (CAKI-1 renal): > 100 µM | TGI (SNB-75 CNS): 97.2 µM | TGI (786-0 renal): > 100 µM | TGI (RPMI-8226 leukemia): > 100 µM | TGI (M14 melanoma): > 100 µM | TGI (HL-60(TB) leukemia): > 100 µM | TGI (NCI-H23 lung): > 100 µM | TGI (SK-MEL-28 melanoma): > 100 µM | TGI (LXFL 529 NSCLC): > 100 µM | TGI (KM20L2 colon): > 100 µM | TGI (M19-MEL melanoma): > 100 µM | TGI (SK-MEL-5 melanoma): > 100 µM | TGI (DMS 114 small cell lung): > 100 µM | TGI (KM12 colon): > 100 µM | TGI (OVCAR-3 ovarian): > 100 µM | TGI (CCRF-CEM leukemia): > 100 µM | TGI (K-562 leukemia): > 100 µM | TGI (COLO 205 colon): 26.6 µM | TGI (HCC-2998 colon): > 100 µM | TGI (HCT-15 colon): > 100 µM | TGI (MALME-3M melanoma): > 100 µM | TGI (OVCAR-4 ovarian): > 100 µM | TGI (NCI-H460 lung): > 100 µM | TGI (SN12C renal): 5.05 µM | TGI (SF-268 CNS): > 100 µM | TGI (SR leukemia): > 100 µM | TGI (OVCAR-8 ovarian): > 100 µM | TGI (RXF 393 renal): > 100 µM | TGI (SW-620 colon): > 100 µM | TGI (OVCAR-5 ovarian): > 100 µM | TGI (SNB-78 CNS): > 100 µM | TGI (NCI-H226 lung): 24.1 µM | TGI (A498 renal): > 100 µM | TGI (RXF-631 renal): > 100 µM | TGI (U251 CNS): > 100 µM | TGI (UACC-62 melanoma): > 100 µM | TGI (LOX IMVI melanoma): > 100 µM | TGI (DMS 273 small cell lung): > 100 µM | TGI (DLD-1 colon): > 100 µM | TGI (MOLT-4 leukemia): > 100 µM | TGI (HCT-116 colon): > 100 µM | TGI (HOP-62 NSCLC): > 100 µM | TGI (SK-MEL-2 melanoma): > 100 µM | TGI (EKVX NSCLC): > 100 µM | TGI (NCI-H522 lung): > 100 µM | TGI (SK-OV-3 ovarian): > 100 µM
